These results are taken from patent US20240254129A1, “HETEROCYCLIC COMPOUNDS AND USES THEREOF” (Kumquat Biosciences Inc., priority 2021, published 2024).

Read-outs that look alike come from different tables or passages of the source.

The IC50 is the point on the concentration scale where inhibition reaches its midpoint.

Test [1] addresses GST-tagged K-Ras mutant / His-tagged hSOS1 (Homo sapiens, UniProt P01116). The test is described as follows: HTRF assay, K-Ras mutant / SOS1 interaction. Type of test: binding. To be noted: read-out: IC50 against mutant Kras. In outline: (§1)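 GST-tagged K-Ras (mutant or wildtype) with anti-GST-Eu donor was mixed with His-hSOS1 and anti-6His-XL665 acceptor in HEPES pH 7.4 buffer with NaCl, DTT, BSA and Igepal. After ≥10 min, HTRF was read (ex 337 nm, em 620/665 nm); 665/620 ratios gave IC50 from duplicate dilution series.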
(In general: TR-FRET usually uses a lanthanide donor and a delayed reading to cut background.)

For another test, the target named is T1, wildtype Kras / hSOS1 (Homo sapiens, UniProt P01116).
T1 construct: made in house; host or cells: E. coli BL21 (DE3)
T1 sequence (P01116 1-188 isoform P01116-2): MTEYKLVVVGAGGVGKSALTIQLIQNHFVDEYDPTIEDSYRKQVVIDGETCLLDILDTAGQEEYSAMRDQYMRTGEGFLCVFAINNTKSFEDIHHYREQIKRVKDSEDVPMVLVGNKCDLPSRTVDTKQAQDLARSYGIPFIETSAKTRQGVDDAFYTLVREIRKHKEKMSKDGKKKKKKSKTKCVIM
The test is described as follows: HTRF assay, wildtype Kras / SOS1 interaction. To be noted: read-out: IC50 against wildtype Kras. Type of test: binding. In outline: as §1

Where [2] appears, read: compound nos. 102-196, general methodology of example 5.

Sequence of GST-tagged K-Ras mutant / His-tagged hSOS1 (P01116 whole entry G12D, form open): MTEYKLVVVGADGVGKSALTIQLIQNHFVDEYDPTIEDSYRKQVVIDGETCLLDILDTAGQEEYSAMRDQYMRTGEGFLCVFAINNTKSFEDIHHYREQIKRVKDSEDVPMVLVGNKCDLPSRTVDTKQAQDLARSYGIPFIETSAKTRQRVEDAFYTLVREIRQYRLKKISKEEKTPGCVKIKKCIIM

On to `Nc1nc2c(-c3c(Cl)cc4c(N5CCCCCCC5)nc(OC[C@@]56CCCN5C[C@H](F)C6)nc4c3F)ccc(F)c2s1` [Compound 667, 4-(4-(azocan-1-yl)-6-chloro-8-fluoro-2-(((2R,7aS)-2-fluorotetrahydro-1H-pyrrol-izin-7a(5H)-yl)methoxy)-quinazolin-7-yl)-7-fluoro-benzo[d]thiazol-2-amine], for which the IC50 in test [1] (compound nos. 401-703) was under 500 nM; on wildtype Kras / hSOS1 (compound nos. 401-703), over 500 nM.

Turning to `CN(C)CC1(COc2nc(N3C[C@H]4CC[C@@H](C3)N4)c3cc(Cl)c(-c4cc(O)cc5ccccc45)c(F)c3n2)CC1` [Compound 701, 4-(4-((1R,5S)-3,8-diazabicyclo[3.2.1]octan-3-yl)-6-chloro-2-((1-((dimethylamino)methyl)cyclopropyl)methoxy)-8-fluoroquinazolin-7-yl)naphthalen-2-ol], the IC50 is under 500 nM in test [1] (compound nos. 401-703) and over 500 nM at wildtype Kras / hSOS1 (compound nos. 401-703).

On to `CN1CCC[C@H]1COc1nc(N2CCNC(=O)C(F)(F)C2)c2cc(Cl)c(-c3ccc(F)c4sc(N)nc34)c(F)c2n1` [Compound 112, 1-(7-(2-amino-7-fluoro-benzo[d]thiazol-4-yl)-6-chloro-8-fluoro-2-(((S)-1-methylpyrrolidin-2-yl)meth-oxy)quinazolin-4-yl)-6,6-difluoro-1,4-diazepan-5-one], for which the IC50 (in test [1] (setting [2]); on wildtype Kras / hSOS1 (setting [2])) was under 500 nM in each case.

Take `Nc1cc2cccc(-c3c(Cl)cc4c(N5CC6CCC(C5)N6)nc(OCC56CCCN5CCC6)nc4c3F)c2cn1` [Compound 618, 8-(4-(3,8-diazabicyclo-[3.2.1]octan-3-yl)-6-chloro-8-fluoro-2-((tetrahydro-1H-pyrrolizin-7a(5H)-yl)meth-oxy)quinazolin-7-yl)iso-quinolin-3-amine]: the 50% inhibitory concentration (IC50) (in test [1] (compound nos. 401-703); at wildtype Kras / hSOS1 (compound nos. 401-703)) was over 500 nM in each case.

Regarding `CN1CCN(c2nc(OC[C@@H]3CCCN3C)nc3c(F)c(-c4cccc5sc(N)nc45)c(Cl)cc23)CC(F)(F)C1` [Compound 123, 4-(6-chloro-4-(6,6-difluoro-4-methyl-1,4-diazepan-1-yl)-8-fluoro-2-(((S)-1-methyl-pyrrolidin-2-yl)methoxy)-quinazolin-7-yl)benzo[d]-thiazol-2-amine], the half-inhibitory concentration (IC50) (in test [1] (setting [2]); at wildtype Kras / hSOS1 (setting [2])) was over 500 nM each time.

In the case of `COc1nc2c(N3CC4CCC(C3)N4)nc(OCC34CCCN3CCC4)nc2cc1-c1cccc2cccc(Cl)c12` [Compound 544, 4-(3,8-diazabicyclo[3.2.1]-octan-3-yl)-7-(8-chloronaph-thalen-1-yl)-6-methoxy-2-((tetrahydro-1H-pyrrolizin-7a(5H)-yl)methoxy)pyrido-[3,2-d]pyrimidine], the IC50 (in test [1] (compound nos. 401-703); at wildtype Kras / hSOS1 (compound nos. 401-703)) was over 500 nM each time.

Take `Nc1c(-c2ccccc2)cccc1-c1c(Cl)cc2c(N3CC4CCC(C3)N4)nc(OCC34CCCN3CCC4)nc2c1F` [Compound 683, 3-(4-(3,8-diazabicyclo-[3.2.1]-octan-3-yl)-6-chloro-8-fluoro-2-((tetrahydro-1H-pyrrolizin-7a(5H)-yl)meth-oxy)quinazolin-7-yl)-[1,1′-biphenyl]-2-amine]: the concentration for half-maximal inhibition (IC50) (in test [1] (compound nos. 401-703); on wildtype Kras / hSOS1 (compound nos. 401-703)) was over 500 nM throughout.

For the compound `Nc1cc(-c2c(Cl)cc3c(N4CC5CCC(C4)N5)nc(OCC45CCCN4CCC5)nc3c2F)ccc1F` [Compound 627, 5-(4-(3,8-diazabicyclo-[3.2.1]octan-3-yl)-6-chloro-8-fluoro-2-((tetrahydro-1H-pyrrolizin-7a(5H)-yl)meth-oxy)quinazolin-7-yl)-2-fluoroaniline], the 50% inhibitory concentration (IC50) (in test [1] (compound nos. 401-703); at wildtype Kras / hSOS1 (compound nos. 401-703)) was over 500 nM each time.

Consider `Nc1cc(-c2c(Cl)cc3c(N4CC5CCC(C4)N5)nc(OCC45CCCN4CCC5)nc3c2F)c2ccccc2c1` [Compound 564, 4-(4-(3,8-diazabicyclo-[3.2.1]octan-3-yl)-6-chloro-8-fluoro-2-((tetrahydro-1H-pyrrolizin-7a(5H)-yl)meth-oxy)quinazolin-7-yl)naph-thalen-2-amine], for which the IC50 (in test [1] (compound nos. 401-703); at wildtype Kras / hSOS1 (compound nos. 401-703)) was over 500 nM each time.

On to `CN1CCC[C@H]1COc1nc(N2CCNCC(F)(F)C2)c2cc(Cl)c(-c3cccc4oc(C#N)nc34)c(F)c2n1` [Compound 185, 4-(6-chloro-4-(6,6-difluoro-1,4-diazepan-1-yl)-8-fluoro-2-(((S)-1-methylpyrrolidin-2-yl)methoxy)quinazolin-7-yl)benzo[d]oxazole-2-carbonitrile], for which the IC50 (in test [1] (setting [2]); on wildtype Kras / hSOS1 (setting [2])) was over 500 nM throughout.

As for `Nc1c(F)ccc(-c2c(Cl)cc3c(N4CC5CCC(C4)N5)nc(OCC45CCCN4CCC5)nc3c2F)c1F` [Compound 563, 3-(4-(3,8-diazabicyclo-[3.2.1]octan-3-yl)-6-chloro-8-fluoro-2-((tetrahydro-1H-pyrrolizin-7a(5H)-yl)meth-oxy)quinazolin-7-yl)-2,6-difluoroaniline], the IC50 (in test [1] (compound nos. 401-703); on wildtype Kras / hSOS1 (compound nos. 401-703)) was over 500 nM throughout.

In the case of `Nc1nc2c(-c3c(Cl)cc4c(N5CC6CCC(C5)N6)nc(OCC56CCCN5CCC6)nc4c3F)c(F)ccc2s1` [Compound 578, 4-(4-(3,8-diazabicyclo-[3.2.1]octan-3-yl)-6-chloro-8-fluoro-2-((tetrahydro-1H-pyrrolizin-7a(5H)-l)meth-oxy)quinazolin-7-yl)-5-fluorobenzo[d]thiazol-2-amine], the IC50 in test [1] (compound nos. 401-703) is under 500 nM; on wildtype Kras / hSOS1 (compound nos. 401-703), over 500 nM.

For the compound `Nc1nc2c(-c3c(Cl)cc4c(N5CC6CCCC(C5)N6)nc(OC[C@@]56CCCN5C[C@H](F)C6)nc4c3F)ccc(F)c2s1` [Compound 607, 4-(4-(3,9-diazabicyclo-[3.3.1]nonan-3-yl)-6-chloro-8-fluoro-2-(((2R,7aS)-2-fluorotetrahydro-1H-pyrrol-izin-7a(5H)-yl)methoxy)-quinazolin-7-yl)-7-fluoro-benzo[d]thiazol-2-amine], the half-inhibitory concentration (IC50) was under 500 nM in test [1] (compound nos. 401-703) and over 500 nM on wildtype Kras / hSOS1 (compound nos. 401-703).

For `CN1CCC[C@H]1COc1nc(N2CCNCC(F)(F)C2)c2cc(Cl)c(-c3cccc4nc(N)oc34)c(F)c2n1` [Compound 166, 7-(6-chloro-4-(6,6-difluoro-1,4-diazepan-1-yl)-8-fluoro-2-(((S)-1-methylpyrrolidin-2-yl)methoxy)quinazolin-7-yl)benzo[d]oxazol-2-amine], the IC50 (in test [1] (setting [2]); at wildtype Kras / hSOS1 (setting [2])) was over 500 nM each time.

In the case of `CN(C)CC1(COc2nc(N3CC4CCC(C3)N4)c3cc(Cl)c(-c4cccc5oc(N)nc45)c(F)c3n2)CC1` [Compound 692, 4-(4-(3,8-diazabicyclo-[3.2.1]-octan-3-yl)-6-chloro-2-((1-((dimethylamino)-methyl)cyclopropyl)meth-oxy)-8-fluoroquinazolin-7-yl)benzo[d]oxazol-2-amine], the IC50 in test [1] (compound nos. 401-703) was under 500 nM; at wildtype Kras / hSOS1 (compound nos. 401-703), over 500 nM.

On to `CN1C[C@@H](F)C[C@H]1COc1nc(N2CCNCC(F)(F)C2)c2cc(Cl)c(-c3cccc4sc(N)nc34)c(F)c2n1` [Compound 130, 4-(6-chloro-4-(6,6-difluoro-1,4-diazepan-1-yl)-8-fluoro-2-(((2S,4S)-4-fluoro-1-methylpyrrolidin-2-yl)meth-oxy)quinazolin-7-yl)benzo-[d]thiazol-2-amine], for which the concentration for half-maximal inhibition (IC50) was over 500 nM in test [1] (setting [2]) and under 500 nM at wildtype Kras / hSOS1 (setting [2]).

On to `N#Cc1c(N)sc2c(F)ccc(-c3c(Cl)cc4c(N5CC6CCC(C5)O6)nc(OC[C@@]56CCCN5C[C@H](F)C6)nc4c3F)c12` [Compound 473, 4-(4-(8-oxa-3-azabicyclo-[3.2.1]octan-3-yl)-6-chloro-8-fluoro-2-(((2R,7aS)-2-fluorotetrahydro-1H-pyrrol-izin-7a(5H)-yl)methoxy)-quinazolin-7-yl)-2-amino-7-fluorobenzo[b]thiophene-3-carbonitrile], for which the IC50 (in test [1] (compound nos. 401-703); on wildtype Kras / hSOS1 (compound nos. 401-703)) was under 500 nM each time.

Consider `CN1CCC[C@H]1COc1nc(N2CCNCC(F)(F)C2)c2cc(Cl)c(-c3cccc4sc(NCC(F)(F)F)nc34)c(F)c2n1` [Compound 149, 4-(6-chloro-4-(6,6-difluoro-1,4-diazepan-1-yl)-8-fluoro-2-(((S)-1-methylpyrrolidin-2-yl)methoxy)quinazolin-7-yl)-N-(2,2,2-trifluoroethyl)-benzo[d]thiazol-2-amine], for which the IC50 (in test [1] (setting [2]); at wildtype Kras / hSOS1 (setting [2])) was over 500 nM in each case.

For the compound `COC1CCCCN(c2nc(OC[C@@H]3CCCN3C)nc3c(F)c(-c4cccc5sc(N)nc45)c(Cl)cc23)C1` (stereo partly drawn) [Compound 524, 4-(6-chloro-8-fluoro-4-(3-methoxyazepan-1-yl)-2-(((S)-1-methylpyrrolidin-2-yl)methoxy)quinazolin-7-yl)benzo[d]thiazol-2-amine], the concentration for half-maximal inhibition (IC50) in test [1] (compound nos. 401-703) is under 500 nM; on wildtype Kras / hSOS1 (compound nos. 401-703) it was over 500 nM.

Take `Nc1nc2c(-c3c(Cl)cc4c(N5C6CCNCC5CC6)nc(OC[C@@]56CCCN5C[C@H](F)C6)nc4c3F)ccc(F)c2s1` (stereo partly drawn) [Compound 568, 4-(4-(3,9-diazabicyclo-[4.2.1]-nonan-9-yl)-6-chloro-8-fluoro-2-(((2R,7aS)-2-fluorotetrahydro-1H-pyrrol-izin-7a(5H)-yl)methoxy)-quinazolin-7-yl)-7-fluoro-benzo[d]thiazol-2-amine]: the values for the IC50 (in test [1] (compound nos. 401-703); at wildtype Kras / hSOS1 (compound nos. 401-703)) were under 500 nM and over 500 nM, respectively.

As to `Cc1cc2c(N3CCNCC(F)(F)C3)nc(OC[C@@H]3CCCN3C)nc2c(F)c1-c1cccc2sc(N)nc12` [Compound 157, 4-(4-(6,6-difluoro-1,4-diazepan-1-yl)-8-fluoro-6-methyl-2-(((S)-1-methyl-pyrrolidin-2-yl)methoxy)-quinazolin-7-yl)benzo[d]-thiazol-2-amine], the IC50 (in test [1] (setting [2]); on wildtype Kras / hSOS1 (setting [2])) was under 500 nM throughout.

On to `Nc1nc2c(-c3c(Cl)cc4c(N5CCNCC(F)(F)C5)nc(OCc5ccccn5)nc4c3F)cccc2s1` [Compound 139, 4-(6-chloro-4-(6,6-difluoro-1,4-diazepan-1-yl)-8-fluoro-2-(pyridin-2-ylmethoxy)-quinazolin-7-yl)benzo[d]-thiazol-2-amine], for which the half-maximal inhibitory concentration (IC50) (in test [1] (setting [2]); on wildtype Kras / hSOS1 (setting [2])) was over 500 nM in each case.
